In patent publication US11883423B2, “Nucleobase analogue derivatives and their applications” (BOARD OF REGENTS, THE UNIVERSITY OF TEXAS SYSTEM, priority 2014, dated 2024):

Tests used:
[1] = system: NCI-56 human tumor cell lines; conditions: cited from earlier work
Panc-02 tumor cells = experiment: Cytotoxicity after 4 h co-incubation, MTT test; format: cell-based, mouse; conditions: Panc-02 cells, at concentrations of more than 80 μM
Experimental: The mechanisms underlying the cytotoxicity of the Gem-DHA may be different from that of gemcitabine. For example, in cell culture studies, Panc-02 cells were seeded into 96-well plates (1,500 cells per well) and incubated at 37° C., 5% CO2 for 24 h. They were then co-incubated with various concentrations of Gem-DHA, gemcitabine HCl alone, or DHA alone for 4 h, and cell viability was determined using an MTT test.

Panc-02 tumors = experiment: Antitumor activity against s.c. Panc-02 tumors in C57BL/6 mice; format: in vivo; conditions: i.p., ~0.1 mmole/kg, twice a week, up to 6 doses
Experimental: Therefore, the in vivo anti-tumor activity of Gem-DHA was also evaluated and compared to that of DHA alone in male C57BL/6 mice (6-8 weeks, Charles River) with subcutaneously (s.c.)
implanted Panc-02 tumors. Briefly, 1×10^6 cells were s.c. injected in the right flank of mice. Sixteen days later, mice were randomized into groups (n=12) and i.p. injected with Gem-DHA (˜55 mg/kg, […]) or DHA (˜33 mg/kg, ˜0.1 mmole/kg). Mice in the control group were i.p. injected with sterile 5% mannitol (w/v). Gem-DHA and DHA was dissolved in a Tween 80/ethanol/water solution with 5% (w/v) of mannitol. The doses were based on the average weight of mice in the same group on the first day of injection. The treatment was repeated twice a week for up to 6 doses. Tumor growth was monitored using a digital caliper, and tumor volume was calculated based on the longest diameter (L1) and the shortest diameter (L2) of each tumor using the equation of V=½×(L1×L2×L2).

BxPC-3 cells = experiment: Cytotoxicity of Gem-ARA, MTT assay, BxPC-3 cells; format: cell-based, human; conditions: up to 72 h, mean ± SD (n>3)
Experimental: (§1) To understand the effect of the omega-3 polyunsaturated fatty acid nature of the DHA (i.e., the docosahexaedecanoyl group) in the Gem-DHA on its cytotoxicity against tumor cells, gemcitabine was also conjugated to arachidonic acid, an omega-6 polyunsaturated fatty acid, to synthesize 4-(N)-arachidonyl gemcitabine (Gem-ARA) (FIG. 4). Human pancreatic cancer cells (MIA PaCa-2 or BxPC-3) were seeded (3,000/well) in 96-well plates. After overnight incubation, cells were treated with various concentrations of gemcitabine HCl or Gem-ARA at 37° C., 5% CO2 for up to 72 h. Gemcitabine HCl was dissolved in phosphate buffered saline (PBS, pH 7.4, 10 mM), and Gem-ARA was dissolved in DMSO. The maximum amount of DMSO added per well was 0.9 μL, which was found non-toxic. The number of viable cells after the incubation was determined using an MTT assay as described above. The 50% inhibition concentration (IC50) values were estimated using GraphPad prism 5 parameters curve fittings.

MIA PaCa-2 cells = experiment: Cytotoxicity of Gem-ARA, MTT assay, MIA PaCa-2 cells; format: cell-based, human; conditions: up to 72 h, mean ± SD (n>3)
Experimental: as §1

[2] = Aqueous solubility by the indirect method (IPM/water partitioning, Beall et al.); format: physicochemical; conditions: mean ± SD (n=3)
Experimental: The aqueous solubility of Gem-DHA was determined following an indirect method according to Beall et al. with minimal modifications (Beall HD et al. International Journal of Pharmaceutics. 1993, 93, 37-47). Briefly, an excess amount of Gem-DHA was added to 100 μl of IPM in a crimp-sealed amber glass vials under nitrogen and was stirred vigorously at room temperature for 24 h, protected from light. After the stirring was stopped, the mixture was left to stand for an additional 24 h for equilibration. The content of the vial was centrifuged (14,000 rpm, 10 min) and the supernatant was transferred into a different tube. Aliquots of the saturated IPM solution were used to measure the Gem-DHA concentration before partitioning (A1) using HPLC (after proper dilution with methanol). Then, water was added to the IPM saturated solution in a volume ratio of 10:1. The two phases were mixed by vortexing for 5 min, left to stand for 15 min, then centrifuged (14,000 rpm, 15 min) to collect the IPM layer. Gem-DHA concentration in the IPM layer (A2) was again measured using HPLC after partitioning. The following equation was used to calculate the partition coefficient (KIPM/water) (Beall HD et al. International Journal of Pharmaceutics. 1993, 93, 37-47):
[formula] where Vwater is the volume of the water phase and VIPM is the volume of IPM. The value of (Vwater/VIPM) was 10.
The aqueous solubility (Sw) of Gem-DHA was determined using the following equation (Id.):
[formula] where SIPM is the solubility of Gem-DHA in IPM.
(§2) In order to validate the method of Beall et al. (Id.), the aqueous solubility of 4-(N)-stearoyl gemcitabine, another lipophilic gemcitabine conjugate (Sloat BR et al. Int J Pharm. 2011, 409(1-2), 278-288), which is stable in water, was measured directly (i.e., direct method) or using the indirect method reported by Beall et al. (Beall HD et al. International Journal of Pharmaceutics. 1993, 93, 37-47).

[3] = Aqueous solubility measured directly (direct method); format: physicochemical; conditions: mean ± SD (n=3)
Experimental: as §2

pre-established tumors = conditions: solubilized in a Tween 80 solution; cited from earlier work
[4] = system: MIA PaCa-2, Panc-1 cells, CCRF-CEM, B16-F10, and TC-1; conditions: various tumor cell lines in culture; cited from earlier work
[5] = system: advanced pancreatic cancer; conditions: in combination with gemcitabine; cited from earlier work

CC/C=C\C/C=C\C/C=C\C/C=C\C/C=C\C/C=C/CCC(=O)O[C@@H](C(=O)O[C@H]1C[C@@]2(O)[C@@H](OC(=O)c3ccccc3)C3[C@](C)(C(=O)[C@H](OC(C)=O)C(=C1C)C2(C)C)[C@@H](O)C[C@H]1OC[C@@]31OC(C)=O)[C@@H](NC(=O)c1ccccc1)c1ccccc1 (some centres unmarked) [DHA conjugated to paclitaxel]
Effect of DHA conjugation on cytotoxicity [1]: lowers the cytotoxicity of the paclitaxel

CC/C=C\C/C=C\C/C=C\C/C=C\C/C=C\C/C=C\CCC(=O)O [DHA, Cis-4,7,10,13,16,19-docosahexaenoic acid, reference compound]
Cytotoxicity after 4 h of co-incubation (Panc-02 tumor cells): did not show any significant cytotoxicity | Inhibition of Panc-02 tumor growth (Panc-02 tumors): did not significantly inhibit the tumor growth

CCCCC/C=C\C/C=C\C/C=C\C/C=C\CCCC(=O)Nc1ccn([C@@H]2O[C@H](CO)[C@@H](O)C2(F)F)c(=O)n1 [Gem-ARA, 4-(N)-Arachidonoyl Gemcitabine]
IC50 (BxPC-3 cells): 1.93 ± 3.8 nM | IC50 (MIA PaCa-2 cells): 64.3 ± 42.7 nM

CCCCCCCCCCCCCCCCCC(=O)Nc1ccn([C@@H]2OC(CO)C(O)C2(F)F)c(=O)n1 (some centres unmarked) [Stearoyl gemcitabine, 4-(N)-stearoyl gemcitabine]
KIPM/water (partition coefficient) ([2]; IPM/water, room temperature): 35.33 ± 2.7 | Water Solubility, Indirect method ([2]; estimated from solubility in IPM and KIPM/water): 1.39 ± 0.1 µg/mL | Water Solubility, Direct method [3]: 1.38 ± 1.6 µg/mL | Inhibition of tumor growth compared with gemcitabine (pre-established tumors): not more active than gemcitabine alone | Cytotoxicity compared with gemcitabine [4]: less cytotoxic than gemcitabine alone

C#Cc1cccc(Nc2ncnc3cc(OCCOC)c(OCCOC)cc23)c1 [erlotinib]
Prolongation of median survival [5]: 10 days
